Values joined by “and” are separate entries in the source; they are usually repeats but may differ in a detail not shown here. Equal values may be shown once.
Columns and labels:
[1] = system: platelets; assay: Clinical trials of ODSH adjunctive to induction and consolidation therapy in AML (platelet counts, need for transfusion); format: in vivo, human
Procedure: A clinical trial is conducted to confirm the therapeutic advantage of ODSH administered adjunctively to induction and consolidation therapy and subsequent allogeneic or autologous bone marrow transplantation in the treatment of acute myelogenous leukemia (AML). Subjects included in the trial are subjects diagnosed with AML who are undergoing induction and consolidation therapy. Subjects are randomly assigned to either a control group (receiving only induction and consolidation therapy) or a treatment group (receiving adjunctive administration of ODSH). ODSH is administered as a continuous infusion (0.375 mg/kg/hr). Subjects in each arm of the trial are evaluated for platelet counts and the need for platelet transfusion. Further metrics evaluated include measurement of circulating levels of PF4 and rate of granulocyte recovery.
A second clinical trial is conducted to confirm the advantage of ODSH administered adjunctively to induction and consolidation chemotherapy in the treatment of AML. The trial is an open-label pilot study often patients newly diagnosed with AML and not previously treated for AML. Patient treatment regimens are as follows. […] Subjects are evaluated for the degree and duration of thrombocytopenia, based on platelet counts and need for transfusion.

[2] = system: BxPC-3 pancreas tumor cell line; assay: BxPC-3 human pancreas tumor xenograft model: tumor weight, tumor growth inhibition (TGI); format: in vivo, female athymic nude mice; details: for Tumor weight, Mean / Tumor weight, Median / Tumor weight, individual mice: Group 2: ODSH 24 mg/kg BID, IV Days 1-11, SC Days 12-end
Procedure: Compounds tested in the experiment were as follows. ODSH was made by Pyramid Laboratories, Inc. (Costa Mesa, Calif.). ODSH was provided at a stock concentration of 50 mg/ml and stored at room temperature until use. ODSH was diluted in a 0.9% NaCl solution (B. Braun Medical Inc., Irvine, Calif.) to a concentration of 2.4 mg/ml to deliver 24 mg/kg, in a 10 ml/kg dose volume when administered intravenously. A concentration of 4.8 mg/ml was formulated to deliver a 24 mg/kg dose at a 5 ml/kg dose volume when administered subcutaneously. ODSH was formulated fresh prior to each dose.
Nab-paclitaxel was manufactured by Abraxis BioScience LLC (Bridgewater, N.J.) and diluted in a 0.9% NaCl solution to a concentration of 1.5 mg/ml to deliver 15 mg/kg, in a 10 ml/kg dose volume. All standard agent preparations were made fresh prior to their administration.
BxPC-3 cells were obtained and prepared as follows. The BxPC-3 pancreas tumor cell line was received from American Type Culture Collection (ATCC, Manassas, Va.). Cultures were maintained in RPMI 1640 medium (Hyclone, Logan, Utah) supplemented with 5% fetal bovine serum. The cells were housed in a 5% CO2 atmosphere. The cultures were expanded in tissue culture flasks at a 1:3 split ratio until a sufficient amount of cells were harvested.
BxPC-3 Human Pancreas Tumor Xenograft Model: Female athymic nude mice per treatment condition were inoculated subcutaneously in the right flank with 0.1 ml of a 50% RPMI 1640/50% Matrigel™ (BD Biosciences, Bedford, Mass.) mixture containing a suspension of BxPC-3 tumor cells (approximately 5×10^6 cells/mouse).
Study Director V.1.7.54k (Study Log).
Mean tumor growth inhibition (TGI) was calculated utilizing Formula A below (deaths were not included in the TGI calculations).
All statistical analyses in the xenograft study were performed with GraphPad Prism® v4 software.

[3] = ANOVA with Tukey's Multiple Comparison Test, BxPC-3 xenograft

## substantially 2-O, 3-O desulfated heparin [ODSH]
[1]; ODSH 4 mg/kg bolus then 0.25 mg/kg/hr, cytarabine + idarubicin
  Thrombocytopenia in AML patients on induction and consolidation chemotherapy (second trial): attenuates thrombocytopenia
[1]; ODSH continuous infusion 0.375 mg/kg/hr, adjunctive
  Thrombocytopenia in AML patients on induction and consolidation therapy (first trial): attenuates thrombocytopenia
[2]; [3]
  Difference in tumor weight compared to vehicle control, Day 26: No significant difference
  Difference in tumor weight compared to vehicle control, Day 36: significant difference
[2]; Day 1
  Tumor weight, Mean: 122.4 mg
  Tumor weight, Median: 22.9 mg
  Tumor weight, individual mice: 114 mg and 116 mg and 172 mg and 94 mg and 131 mg and 106 mg and 125 mg and 143 mg and 129 mg and 140 mg
[2]; Day 4
  Tumor weight, Mean: 134.0 mg
  Tumor weight, Median: 28.6 mg
  Tumor weight, individual mice: 98 mg and 110 mg and 141 mg and 97 mg and 181 mg and 135 mg and 130 mg and 144 mg and 133 mg
[2]; Day 8
  Tumor weight, Mean: 146.0 mg
  Tumor weight, Median: 40.4 mg
  Tumor weight, individual mice: 118 mg and 144 mg and 183 mg and 125 mg and 222 mg and 126 mg and 155 mg and 157 mg and 148 mg
[2]; Day 11
  Tumor weight, Mean: 187.6 mg
  Tumor weight, Median: 162.1 mg
  Tumor weight, individual mice: 288 mg and 142 mg and 175 mg and 243 mg and 146 mg and 252 mg and 137 mg and 140 mg and 203 mg
[2]; Day 15
  Tumor weight, Mean: 263.0 mg
  Tumor weight, Median: 250.0 mg
  Tumor weight, individual mice: 340 mg and 224 mg and 263 mg and 348 mg and 237 mg and 321 mg and 208 mg and 218 mg and 264 mg
[2]; Day 18
  Tumor weight, Mean: 338.5 mg
  Tumor weight, Median: 304.7 mg
  Tumor weight, individual mice: 489 mg and 291 mg and 288 mg and 419 mg and 256 mg and 415 mg and 318 mg and 278 mg and 352 mg
[2]; Day 22
  Tumor weight, Mean: 453.8 mg
  Tumor weight, Median: 425.4 mg
  Tumor weight, individual mice: 622 mg and 360 mg and 400 mg and 556 mg and 402 mg and 551 mg and 449 mg and 326 mg and 515 mg
[2]; Day 26
  Tumor weight, Mean: 616.2 mg
  Tumor weight, Median: 551.3 mg
  Tumor weight, individual mice: 894 mg and 478 mg and 529 mg and 770 mg and 573 mg and 724 mg and 524 mg and 394 mg and 766 mg
[2]; Day 26 vs Day 1, compared to vehicle control, BxPC-3 xenograft, ODSH 24 mg/kg BID, oxaliplatin 10 mg/kg, gemcitabine 80 mg/kg (Table 1)
  TGI (mean tumor growth inhibition), Day 26: 11.5%
[2]; Day 30
  Tumor weight, Mean: 882.3 mg
  Tumor weight, Median: 856.4 mg
  Tumor weight, individual mice: 1,083 mg and 756 mg and 893 mg and 1,201 mg and 820 mg and 945 mg and 764 mg and 555 mg and 1,109 mg
[2]; Day 33
  Tumor weight, Mean: 1,038.6 mg
  Tumor weight, Median: 979.8 mg
  Tumor weight, individual mice: 1,218 mg and 999 mg and 961 mg (2×) and 1,309 mg and 1,087 mg and 871 mg and 733 mg and 1,340 mg
[2]; Day 36
  Tumor weight, Median: 1,151.5 mg
  Tumor weight, individual mice: 1,450 mg and 1,153 mg and 1,150 mg (2×) and 1,654 mg and 1,376 mg and 1,037 mg and 836 mg and 1,823 mg
[2]; Day 36 vs Day 1, compared to vehicle control, BxPC-3 xenograft, ODSH 24 mg/kg BID, oxaliplatin 10 mg/kg, gemcitabine 80 mg/kg, nab-paclitaxel 15 mg/kg (Table 1)
  TGI (mean tumor growth inhibition), Day 36: 18.2%
[2]; Table 14, treatment administered until Day 26
  Day 26 Tumor Weight: 616.2 ± 50.9 mg
[2]; Table 15, treatment administered until Day 35
  Day 26 Tumor Weight: 1270.1 ± 95.5 mg
